Where a name gives a salt, the structure may show the parent alone.
Tests used:
[1] = in vitro; conditions: microsomes
Method: Experiments were conducted to determine the intrinsic clearance by substrate depletion for COMPOUND I metabolism in liver microsomes in the presence of NADPH and UDPGA. Incubations containing midazolam (0.2 μM with 0.1 mg/mL liver microsomes) or diclofenac (1 μM with 1 mg/mL liver microsomes) were also performed as positive controls for oxidative and glucuronidation activity, respectively. Sample preparation and incubation were performed on a MultiProbe IIEX Robotic Liquid Handling System (Perkin-Elmer, Shelton, Conn.) and a Micromix 5 (Packard, Downers Grove, Ill.). Samples were pre-incubated at 37° C. Control incubations were conducted under the same conditions without cofactors. At specified time points (0, 10, 20 and 30 min), 150 μL aliquots were transferred to tubes with 500 μL acetonitrile containing 30 ng/mL of the internal standard (furosemide) to precipitate the protein. Samples were centrifuged at 4° C. for 10 min at 3400 rpm (ThermoForma, Marietta, Ohio). The supernatant (400 μL) was transferred to a clean test tube and the acetonitrile evaporated under a stream of nitrogen in a Turbo Vap (Caliper Life Sciences, Hopkinton, Mass.). The samples were then reconstituted in 200 μL of 20% methanol in water and analyzed by LC/MS.
The HPLC system used was a Surveyor HPLC (Thermo Electron Corp., San Jose, Calif.). Separations were accomplished on a Supelcosil LC-C18 column (150×4.6 mm, 5 μm) (Supelco, Bellefonte, Pa.). The column temperature was maintained at ambient and the sample chamber was at 10° C. Mobile phase A was 5 mM ammonium acetate in water and mobile phase B was methanol.
The mass spectrometer used for microsomal stability analysis was a TSQ Quantum (Thermo Electron Corp.; San Jose, Calif.) equipped with an electrospray ionization (ESI) source and operated in the positive ionization mode.
Peak area ratios for COMPOUND I against the internal standard were used to express the % remaining at given time points. The percent of remaining COMPOUND I was calculated by dividing the […]. In vitro intrinsic clearance (CLint) of COMPOUND I was calculated by linear regression of log % remaining vs time plots using Microsoft Excel, 7.0 and normalizing to mg protein content. Metabolic half-life (t1/2) was calculated by dividing 0.693 by the intrinsic clearance.

[2] = Metabolite profiling in liver microsomes and S9; type: in vitro ADME, rat, dog, monkey, human; conditions: liver microsomes and S9, 10 μM COMPOUND I, 30 min; species letters not defined
Method: Microsomal incubations for metabolite profiling were similar to those described above for intrinsic clearance determination (see Table 1). Aliquots of COMPOUND I (10 μL), dissolved in DMSO:methanol (1:9), were added to a 96-well plate containing phosphate buffer, and MgCl2 and the liver microsomes at 37° C. using the same automation apparatus as for the stability study described hereinabove. The reactions were initiated by the addition of the UDPGA and NADPH generating system. The final incubation volume for all samples was 1 mL and the length of incubation was 30 min. […] Three 250 μL aliquots were transferred to a 96-well plate containing 900 μL acetonitrile to precipitate the protein. […] The samples were then reconstituted in 150 μL of 20% methanol in water. The three aliquots for each sample were pooled and analyzed by LC/MS.
S9 incubation buffer and cofactors were chosen to allow N-acetylation and carbamoyl glucuronidation in addition to oxidative and glucuronidation pathways possible in liver microsomes. Incubations of sulfamethazine and SCA-136 with liver S9 were used as positive controls for N-acetylation and carbamoyl glucuronidation, respectively. Following a 30 min. incubation, 750 μL from each sample were added to 900 μL acetonitrile. Following centrifugation and evaporation of the supernatant, the samples were reconstituted in 450 μL of 20% methanol in water for analysis by HPLC/UV and LC/MS (see below).
The HPLC system used for mass spectrometric analysis was an Agilent 1100 HPLC (Agilent Technologies, Palo Alto, Calif.) equipped with a binary pump and a diode array UV detector. The UV detector was set to monitor 190-400 nm. Separations were accomplished on a Luna C18 column (150×2.1 mm, 5 μm) (Phenomenex Incorporated, Torrance, Calif.).
The mass spectrometer used for metabolite characterization was a Finnigan LCQ Deca ion trap mass spectrometer (Thermo Electron Corp.). […] Full scan and data dependent MS2 and MS3 mass spectra were recorded. Finnigan Xcalibur software (version 1.3) was used for control of equipment and recording of data from UV and LC/MS analyses.
Chromatographic profiles of COMPOUND I (10 μM) metabolites in incubations with liver microsomes in the presence of NADPH are presented in FIG. 1. Chromatographic profiles of COMPOUND I (10 μM) metabolites in incubations with liver microsomes in the presence of NADPH and UDPGA are presented in FIG. 2. Chromatographic profiles of COMPOUND I (10 μM) metabolites in incubations with liver S9 in the presence of NADPH, UDPGA and acetyl coenzyme A (CoA) are presented in FIG. 3. In incubations containing NADPH, UDPGA and acetyl CoA, fourteen Phase I metabolites (M1, M6, M8, M12, M13, M14, M15, M16, M17, M18, M20, M21, M22 and M23) and six Phase II metabolites (M2, M3, M5, M7, M9 and M10) were observed. In incubations without cofactors, no metabolites were observed.
LC/MS analysis was conducted on extracts of mouse, rat, monkey and human liver microsomes and S9. The mass spectral data for the characterized COMPOUND I metabolites are discussed below.

[3] = Turnover to metabolites in cryopreserved hepatocytes; conditions: hepatocytes, 20 μM
Method: Chromatographic analyses were performed with a Waters Alliance model 2695 HPLC system (Waters Corp., Milford, Mass.) that was equipped with a built-in autosampler. The column eluent was monitored with a model 996 diode array UV detector, set to monitor 250 nm, and a FloOne β Model A525 radioactivity flow detector (Perkin Elmer) with a 250 μL flow cell. Separation of the parent compound from metabolites was accomplished using a Discovery C18 column, 250×4.6 mm, 5 μm (Supelco, Bellefonte, Pa.) at an ambient temperature of approximately 20° C. Mobile phase A was 10 mM ammonium acetate (pH 4.5) and mobile phase B was acetonitrile and they were delivered at 1 mL/min using the gradient described in Table 10. The Ultima Flo M scintillant flow rate was 3 mL/min.
Flo-One analytical software (version 3.65) was utilized to integrate the radioactive peaks. Means and standard deviations were calculated using Microsoft Excel® 2000. Micromass MassLynx software (version 4.0, Waters Corp.) was used for control of LC/MS equipment and recording of data from LC/MS analyses.

| half-life at 1 μM ([1]; both, human) [min] | microsomal CLint at 1 μM ([1]; both, human) [µL/min/mg] | half-life at 1 μM ([1]; male, Sprague-Dawley, rat) [min] | microsomal CLint at 1 μM ([1]; male, Sprague-Dawley, rat) [µL/min/mg] | half-life at 1 μM ([1]; male, beagle, dog) [min] | microsomal CLint at 1 μM ([1]; male, beagle, dog) [µL/min/mg] | half-life at 1 μM ([1]; male, monkey) [min] | microsomal CLint at 1 μM ([1]; male, monkey) [µL/min/mg] | Species (in which the metabolite was characterized) [2] | average turnover to metabolites ([3]; both, human, 1 h) [%] | average turnover to metabolites ([3]; both, human, 4 h) [%] | average turnover to metabolites ([3]; dog, 1 h) [%] | average turnover to metabolites ([3]; dog, 4 h) [%] | average turnover to metabolites ([3]; male, rat, 1 h) [%] | average turnover to metabolites ([3]; male, rat, 4 h) [%] | SMILES |
| --- | --- | --- | --- | --- | --- | --- | --- | --- | --- | --- | --- | --- | --- | --- | --- |
| 7 | 100 | 2 | 332 | 13 | 55 | 2 | 312 | R, D, M, H | – | – | – | – | – | – | COc1cc(N2CCN(C3CCN(c4ccc(F)c5cccnc45)CC3)CC2)c2ncccc2c1 [COMPOUND I, 5-Fluoro-8-{4-[4-(6-methoxyquinolin-8-yl)piperazin-1-yl]piperidin-1-yl}quinoline] |
| – | – | – | – | – | – | – | – | – | 13 | 18 | 8 | 12 | 32 | 38 | COc1cc(N2CCN(C3CCN(c4ccc(F)c5cccnc45)CC3)CC2)c2ncccc2c1 [[^14C]COMPOUND I, [piperazine-^14C(U)]-5-fluoro-8-(4-(4-(6-methoxyquinolin-8-yl)piperazin-1-yl)piperidin-1-yl)quinoline trisuccinate] |
| – | – | – | – | – | – | – | – | R, D, M, H | – | – | – | – | – | – | Oc1cc(N2CCN(C3CCN(c4ccc(F)c5cccnc45)CC3)CC2)c2ncccc2c1 [Metabolite M21, 8-{4-[1-(5-fluoroquinolin-8-yl)piperidin-4-yl]piperazin-1-yl}quinolin-6-ol trihydrochloride] |

Reference: patent US20080262228A1, “Metabolites of 5-fluoro-8- quinoline and methods of preparation and uses thereof” (Wyeth, priority 2006, published 2008)
